Source: ChEMBL document CHEMBL5543173, “Discovery of a New Anti-Inflammatory Agent from Anemoside B4 Derivatives and Its Therapeutic Effect on Colitis by Targeting Pyruvate Carboxylase” (J Med Chem, 2024)
Active and inactive are the calls of the source. The rule behind the calls is not given here.

What was measured:
[1] = test system: THP-1; experiment: Anti-inflammatory activity in human THP-1 cells assessed as decrease in LPS-induced phosphorylated p65 level pretreated for 1 hr followed by LPS treatment for 6 hrs by Western blot analysis; format: functional, cell-based; conditions: dose 1-10 µM, time 7.0 hrs
[2] = test system: THP-1; experiment: Anti-inflammatory activity in human THP-1 cells assessed as decrease in LPS-induced phosphorylated I-kappaB-alpha level pretreated for 1 hr followed by LPS treatment for 6 hrs by Western blot analysis; format: functional, cell-based; conditions: dose 1-10 µM, time 7.0 hrs
[3] = test system: THP-1; experiment: Anti-inflammatory activity in human THP-1 cells assessed as decrease in LPS-induced pro-IL-1beta level at 1 to 10 uM pretreated for 1 hr followed by LPS/ATP treatment for 6 hrs by Western blot analysis; format: functional, cell-based; conditions: dose 1-10 µM, time 7.0 hrs
[4] = test system: THP-1; experiment: Anti-inflammatory activity in human THP-1 cells assessed as decrease in LPS-induced P20 level at 1 to 10 uM pretreated for 1 hr followed by LPS/ATP treatment for 6 hrs by Western blot analysis; format: functional, cell-based; conditions: dose 1-10 µM, time 7.0 hrs
[5] = test system: THP-1; experiment: Anti-inflammatory activity in human THP-1 cells assessed as decrease in LPS-induced IL-1beta level at 1 to 10 uM pretreated for 1 hr followed by LPS/ATP treatment for 6 hrs by Western blot analysis; format: functional, cell-based; conditions: dose 1-10 µM, time 7.0 hrs
[6] = test system: THP-1; experiment: Anti-inflammatory activity in human THP-1 cells assessed as decrease in LPS-induced TNF-alpha level pretreated for 1 hr followed by LPS treatment for 24 hrs by ELISA; format: functional, cell-based; conditions: dose 0.1-10 µM, time 25.0 hrs
[7] = test system: THP-1; experiment: Anti-inflammatory activity in human THP-1 cells assessed as decrease in LPS-induced IL-6 level pretreated for 1 hr followed by LPS treatment for 24 hrs by ELISA; format: functional, cell-based; conditions: dose 0.1-10 µM, time 25.0 hrs
[8] = test system: Mus musculus; experiment: Anti-colitis activity in ICR mouse model assessed as decrease in DSS-induced body weight loss at 15 to 60 mg/kg, IG treated for 9 days consecutively; format: functional, organism-based; conditions: dose 15-60 mg/kg, time 9.0 day
[9] = Toxicity in ICR mouse assessed as change in lungs index at 300 mg/kg, IG measured for 9 days; format: organism-based; conditions: in vivo, po, 216 h, time 9 day
[10] = test system: Mus musculus; experiment: Anti-colitis activity in ICR mouse model assessed as reversal of DSS-induced splenomegaly at 15 to 60 mg/kg, IG treated for 9 days consecutively; format: functional, organism-based; conditions: dose 15-60 mg/kg, time 9.0 day
[11] = Toxicity in ICR mouse assessed as change in body weight at 300 mg/kg, IG measured for 9 days; format: organism-based; conditions: in vivo, po, 216 h, time 9 day
[12] = Toxicity in ICR mouse assessed as change in liver index at 300 mg/kg, IG measured for 9 days; format: organism-based; conditions: in vivo, po, 216 h, time 9 day
[13] = Toxicity in ICR mouse assessed as change in kidney index at 300 mg/kg, IG measured for 9 days; format: organism-based; conditions: in vivo, po, 216 h, time 9 day
[14] = Toxicity in ICR mouse assessed as change in heart index at 300 mg/kg, IG measured for 9 days; format: organism-based; conditions: in vivo, po, 216 h, time 9 day
[15] = Tmax in ICR mouse at 15 mg/kg, IG measured for 12 hrs by LC-MS/MS analysis; format: ADME, organism-based; conditions: in vivo, po
[16] = Half life in ICR mouse at 15 mg/kg, IG measured for 12 hrs by LC-MS/MS analysis; format: ADME, organism-based; conditions: ICR, in vivo, po
[17] = Tmax in colon of ICR mouse at 15 mg/kg, IG measured for 12 hrs by LC-MS/MS analysis; format: ADME, organism-based; conditions: po
[18] = Half life in colon of ICR mouse at 15 mg/kg, IG measured for 12 hrs by LC-MS/MS analysis; format: ADME, organism-based; conditions: po
[19] = Half life in Sprague-Dawley rat administered as hydroxypropyl-beta-cyclodextrin at 20 mg/kg, IG measured for 12 hrs by LC-MS/MS analysis; format: ADME, organism-based; conditions: in vivo, po
[20] = Cmax in Sprague-Dawley rat administered as hydroxypropyl-beta-cyclodextrin at 20 mg/kg, IG measured for 12 hrs by LC-MS/MS analysis; format: ADME, organism-based; conditions: in vivo, po
[21] = Stability in mouse liver microsomes assessed as half life at 10 uM preincubated for 5 mins followed by NADPH addition measured for 10 to 480 mins by LC-MS/MS analysis; format: ADME, Microsome; conditions: time 15-485 min
[22] = Stability in mouse liver microsomes assessed as intrinsic clearance at 10 uM preincubated for 5 mins followed by NADPH addition measured for 10 to 480 mins by LC-MS/MS analysis; format: ADME, Microsome; conditions: time 15-485 min
[23] = Stability in mouse plasma assessed as half life at 10 uM preincubated for 5 mins followed by NADPH addition measured for 10 to 480 mins by LC-MS/MS analysis; format: ADME, cell-free; conditions: time 15-485 min
[24] = test system: THP-1; experiment: Anti-inflammatory activity in human THP-1 cells assessed as decrease in LPS-induced IL-1beta level at 10 uM pretreated for 1 hr followed by LPS treatment for 24 hrs in presence of DADA by ELISA; format: functional, cell-based; conditions: time 25.0 hrs
[25] = test system: THP-1; experiment: Anti-inflammatory activity in human THP-1 cells assessed as decrease in LPS-induced TNF-alpha level at 10 uM pretreated for 1 hr followed by LPS treatment for 24 hrs in presence of DADA by ELISA; format: functional, cell-based; conditions: time 25.0 hrs
[26] = test system: Mus musculus; experiment: Anti-colitis activity in ICR mouse model assessed as decrease in DSS-induced DAI score at 15 to 60 mg/kg, IG treated for 8 days consecutively; format: functional, organism-based; conditions: dose 15-60 mg/kg, time 8.0 day
[27] = test system: Mus musculus; experiment: Anti-colitis activity in ICR mouse model assessed as decrease in DSS-induced inflammatory cell infiltration in colon tissue at 15 to 60 mg/kg, IG treated for 8 days consecutively by H and E staining based analysis; format: functional, organism-based; conditions: dose 15-60 mg/kg, time 8.0 day
[28] = test system: Mus musculus; experiment: Anti-colitis activity in ICR mouse model assessed as decrease in DSS-induced apoptosis in colon tissue at 15 to 60 mg/kg, IG treated for 8 days consecutively by H and E staining based analysis; format: functional, organism-based; conditions: dose 15-60 mg/kg, time 8.0 day
[29] = test system: Mus musculus; experiment: Anti-colitis activity in ICR mouse model assessed as decrease in DSS-induced IL-6 level at 60 mg/kg, IG treated for 8 days consecutively in presence of DADA; format: functional, organism-based; conditions: time 8.0 day
[30] = test system: Mus musculus; experiment: Anti-colitis activity in ICR mouse model of DSS-induced colitis assessed as effect on pyruvate carboxylase expression in colon tissue at 60 mg/kg, IG treated for 8 days consecutively by Western blot analysis; format: functional, organism-based; conditions: time 8.0 day

Tmax [15]: 0.96 h | half-life [16]: 2.46 h | Tmax [17]: 1.58 h | half-life [18]: 1.54 h | t1/2 [19]: 1.38 h | Cmax [20]: 0.0575 µg/mL | t1/2 [21]: 6.46 min | CLH [22]: 6.46 µL/min/mg | half-life at 10 µM [23]: 1.14 min
Compound: C=C(C)[C@@H]1CC[C@]2(C(=O)NCCCCCC(=O)OC)CC[C@]3(C)[C@H](CC[C@@H]4[C@@]5(C)CC[C@H](O[C@@H]6OC[C@H](O)[C@H](O)[C@H]6O[C@@H]6O[C@@H](C)[C@H](O)[C@@H](O)[C@H]6O)[C@@](C)(CO)[C@@H]5CC[C@]43C)[C@@H]12
Activity [1]: Dose-Dependent Effect | Activity [2]: Dose-Dependent Effect | Activity [3]: Active | Activity [4]: Active | Activity [5]: Active | Activity [6]: Dose-Dependent Effect | Activity [7]: Dose-Dependent Effect | Activity [8]: Active | Activity [9]: Non-Toxic | Activity [10]: Active | Activity [11]: Non-Toxic | Activity [12]: Non-Toxic | Activity [13]: Non-Toxic | Activity [14]: Non-Toxic | Activity [24]: inactive | Activity [25]: inactive | Activity [26]: Active | Activity [27]: Active | Activity [28]: Active | Activity [29]: inactive | Activity [30]: inactive
